Calls of active or inactive are those of the source. No cut-off for these calls is given here.
What was measured:
Stromelysin-1 [1] = target: T1, Stromelysin-1 (Homo sapiens, UniProt P08254); experiment: Inhibitory activity against recombinant matrix metalloprotease-3
[2] = target: T2, 72 kDa type IV collagenase (Homo sapiens, UniProt P08253); experiment: Inhibitory activity against recombinant matrix metalloprotease-2
Interstitial collagenase [3] = target: T3, Interstitial collagenase (Homo sapiens, UniProt P03956); experiment: Inhibition of Matrix metalloprotease-1
T3 sequence (P03956 whole entry): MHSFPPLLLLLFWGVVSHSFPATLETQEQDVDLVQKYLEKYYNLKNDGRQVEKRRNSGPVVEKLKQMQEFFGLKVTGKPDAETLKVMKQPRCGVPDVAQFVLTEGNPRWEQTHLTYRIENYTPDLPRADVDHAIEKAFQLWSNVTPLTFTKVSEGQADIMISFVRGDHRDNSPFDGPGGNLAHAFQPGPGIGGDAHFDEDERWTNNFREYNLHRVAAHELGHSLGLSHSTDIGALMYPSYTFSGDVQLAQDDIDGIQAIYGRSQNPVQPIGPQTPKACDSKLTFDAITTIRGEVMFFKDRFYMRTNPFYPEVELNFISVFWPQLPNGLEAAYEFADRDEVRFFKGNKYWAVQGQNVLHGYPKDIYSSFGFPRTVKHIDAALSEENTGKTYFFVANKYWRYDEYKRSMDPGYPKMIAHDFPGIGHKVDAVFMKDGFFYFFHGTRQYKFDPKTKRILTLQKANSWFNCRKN

[4] = target: Phosphodiesterase 4 (Cavia porcellus); experiment: Phosphodiesterase 4 inhibitory activity measured against guinea pig macrophage homogenate
[5] = target: Disintegrin and metalloproteinase domain-containing protein 17 (Homo sapiens) (UniProt P78536); experiment: Inhibitory activity against TACE
Stromelysin-1 [6] = target: T1, Stromelysin-1; experiment: In vitro inhibition of human recombinant Matrix metalloprotease-3.
[7] = In vitro for the inhibition of TNF alpha release by human peripheral blood monocytes (PBMs); format: functional
[8] = target: T2, 72 kDa type IV collagenase
Description: In vitro inhibition of human recombinant Matrix metalloprotease-2.

Interstitial collagenase [9] = target: T3, Interstitial collagenase; experiment: In vitro inhibition of human recombinant Matrix metalloprotease-1.

T2 sequence (P08253 whole entry): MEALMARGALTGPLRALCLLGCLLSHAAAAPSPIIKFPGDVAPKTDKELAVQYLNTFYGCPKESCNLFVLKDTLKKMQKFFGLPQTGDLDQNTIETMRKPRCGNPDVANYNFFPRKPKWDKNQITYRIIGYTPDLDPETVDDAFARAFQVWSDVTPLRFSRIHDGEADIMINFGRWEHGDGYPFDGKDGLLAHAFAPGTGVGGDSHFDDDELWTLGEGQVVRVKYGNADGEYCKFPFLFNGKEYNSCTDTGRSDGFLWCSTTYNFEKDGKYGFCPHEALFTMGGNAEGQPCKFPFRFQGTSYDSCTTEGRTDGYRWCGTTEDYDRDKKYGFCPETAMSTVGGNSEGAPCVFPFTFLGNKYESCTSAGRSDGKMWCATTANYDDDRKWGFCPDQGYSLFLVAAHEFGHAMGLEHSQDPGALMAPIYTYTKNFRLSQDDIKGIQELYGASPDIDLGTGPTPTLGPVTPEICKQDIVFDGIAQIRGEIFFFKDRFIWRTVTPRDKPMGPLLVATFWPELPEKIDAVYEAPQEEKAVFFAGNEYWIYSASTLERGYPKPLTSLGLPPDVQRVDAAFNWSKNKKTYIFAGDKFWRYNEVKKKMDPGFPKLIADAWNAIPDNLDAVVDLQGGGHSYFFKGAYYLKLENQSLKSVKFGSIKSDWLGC
Sequence of Disintegrin and metalloproteinase domain-containing protein 17 (Homo sapiens) (P78536 whole entry, the tested form may be a part): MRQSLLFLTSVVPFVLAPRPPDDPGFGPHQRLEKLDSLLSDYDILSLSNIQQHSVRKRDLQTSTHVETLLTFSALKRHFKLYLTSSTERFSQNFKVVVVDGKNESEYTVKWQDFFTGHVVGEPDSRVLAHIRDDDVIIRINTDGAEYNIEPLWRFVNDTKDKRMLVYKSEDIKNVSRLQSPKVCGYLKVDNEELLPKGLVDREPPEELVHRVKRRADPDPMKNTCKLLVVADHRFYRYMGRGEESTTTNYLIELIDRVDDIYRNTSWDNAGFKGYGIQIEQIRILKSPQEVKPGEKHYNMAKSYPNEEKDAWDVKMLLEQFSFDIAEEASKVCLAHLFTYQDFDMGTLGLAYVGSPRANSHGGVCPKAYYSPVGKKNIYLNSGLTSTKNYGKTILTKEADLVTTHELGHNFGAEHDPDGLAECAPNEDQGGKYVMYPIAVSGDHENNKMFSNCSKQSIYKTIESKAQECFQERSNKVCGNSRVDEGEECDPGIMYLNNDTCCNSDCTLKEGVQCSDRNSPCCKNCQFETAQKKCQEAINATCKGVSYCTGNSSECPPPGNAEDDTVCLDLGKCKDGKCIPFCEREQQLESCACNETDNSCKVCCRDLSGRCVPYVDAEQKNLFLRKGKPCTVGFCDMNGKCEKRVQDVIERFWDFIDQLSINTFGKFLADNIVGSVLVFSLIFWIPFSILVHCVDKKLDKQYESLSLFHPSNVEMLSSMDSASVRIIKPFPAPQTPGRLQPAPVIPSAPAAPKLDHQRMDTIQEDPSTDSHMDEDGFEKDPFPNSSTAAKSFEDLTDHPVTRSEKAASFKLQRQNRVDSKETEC
T1 sequence (P08254 whole entry): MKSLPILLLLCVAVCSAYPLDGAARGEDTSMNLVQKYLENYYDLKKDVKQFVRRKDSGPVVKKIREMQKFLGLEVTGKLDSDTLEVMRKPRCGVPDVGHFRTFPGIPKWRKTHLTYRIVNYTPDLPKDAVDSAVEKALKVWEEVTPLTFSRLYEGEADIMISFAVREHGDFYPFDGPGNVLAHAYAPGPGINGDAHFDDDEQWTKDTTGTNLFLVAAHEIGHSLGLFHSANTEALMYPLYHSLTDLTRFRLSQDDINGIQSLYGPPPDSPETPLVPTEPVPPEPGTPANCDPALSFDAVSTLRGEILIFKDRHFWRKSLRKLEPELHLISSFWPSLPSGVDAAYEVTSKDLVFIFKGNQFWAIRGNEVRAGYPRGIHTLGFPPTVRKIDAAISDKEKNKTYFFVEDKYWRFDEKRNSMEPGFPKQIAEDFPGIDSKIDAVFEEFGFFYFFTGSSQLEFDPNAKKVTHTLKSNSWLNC

| SMILES | IC50 (Stromelysin-1 [1]) [nM] | IC50 [2] [nM] | IC50 (Interstitial collagenase [3]) [nM] | IC50 [4] [nM] | Activity [5] | Ki (Stromelysin-1 [6]) [nM] | IC50 [7] [nM] | Ki [8] [nM] | Ki (Interstitial collagenase [9]) [nM] |
| --- | --- | --- | --- | --- | --- | --- | --- | --- | --- |
| COc1ccc(S(=O)(=O)C(CCCc2ccccc2)CC(=O)NO)cc1 (centres undefined) |  |  |  |  | inactive | 1390 | 5000 | 44 | 2580 |
| COc1ccc(S(=O)(=O)C(CC(=O)NO)c2ccc(Oc3ccccc3)cc2)cc1 (centres undefined) |  |  |  | 280 | inactive | > 10000 | 730 | > 10000 | > 10000 |
| COc1ccc(S(=O)(=O)C(CCc2ccccc2)CC(=O)NO)cc1 (centres undefined) |  |  |  |  | inactive | 350 | > 10000 | 43 | 2160 |
| COc1ccc(S(=O)(=O)C(CC(=O)NO)c2ccc(OCc3ccccc3)cc2)cc1 (centres undefined) |  |  |  | 520 | inactive | > 10000 | 1200 | > 10000 | > 10000 |
| COc1ccc(S(=O)(=O)C(CC(=O)NO)c2ccc(-c3ccccc3)cc2)cc1 (centres undefined) |  |  |  | 3600 | inactive | > 10000 | 4400 | > 10000 | > 10000 |
| CCCCC(CC)C(CC(=O)NO)S(=O)(=O)c1ccc(OC)cc1 (centres undefined) |  |  |  |  | inactive | 184 | > 10000 | 4 | 357 |
| COC(=O)c1ccc(C(CC(=O)NO)S(=O)(=O)c2ccc(OC)cc2)cc1 (centres undefined) |  |  |  |  | inactive | 4420 | > 10000 | 88 | 1900 |
| CCCCC(CC(=O)NO)S(=O)(=O)c1ccc(OC)cc1 (centres undefined) |  |  |  |  | inactive | 404 | > 10000 | 30 | 4170 |

The remaining lines, values ahead:

| IC50 (Stromelysin-1 [1]) [nM] | IC50 [2] [nM] | IC50 (Interstitial collagenase [3]) [nM] | IC50 [4] [nM] | Activity [5] | Ki (Stromelysin-1 [6]) [nM] | IC50 [7] [nM] | Ki [8] [nM] | Ki (Interstitial collagenase [9]) [nM] | SMILES |
| --- | --- | --- | --- | --- | --- | --- | --- | --- | --- |
| > 10000 | > 10000 | > 10000 |  |  |  |  |  |  | COc1ccc(S(=O)(=O)C(CCCCc2ccccc2)CC(=O)NO)cc1OC (centres undefined) |
| > 10000 | > 10000 | > 10000 | 11 |  |  |  |  |  | COc1ccc(S(=O)(=O)C(CCCCc2ccc3c(c2)OCO3)CC(=O)NO)cc1OC1CCCC1 (centres undefined) |
|  |  |  |  | inactive | 734 | 1400 | 31 | 9590 | CCCCCCC(CC(=O)NO)S(=O)(=O)c1ccc(OC)cc1 (centres undefined) |
| > 10000 | > 10000 | > 10000 | 6.9 |  |  |  |  |  | COc1ccc(S(=O)(=O)C(CCCCc2ccccc2)CC(=O)NO)cc1OC1CCCC1 (centres undefined) |
